Data on 25 compounds can be found in patent publication US12679843B2, “Pyrrolopyrimidine amines as complement inhibitors” (BioCryst Pharmaceuticals, Inc., priority 2020, dated 2026).

pIC50: −log10 of the molar value.

Usually pIC50 stands for the negative decadic logarithm of the IC50, by convention in mol/L.

Chain of Factor D (P00746 26-253): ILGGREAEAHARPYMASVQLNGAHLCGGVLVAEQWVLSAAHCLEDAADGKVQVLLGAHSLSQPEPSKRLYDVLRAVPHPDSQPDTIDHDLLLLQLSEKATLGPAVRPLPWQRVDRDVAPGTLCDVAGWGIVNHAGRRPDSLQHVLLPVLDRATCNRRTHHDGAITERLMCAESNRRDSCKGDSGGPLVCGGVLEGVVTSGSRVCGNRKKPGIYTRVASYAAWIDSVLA

This test concerns the target Factor D (Homo sapiens, UniProt P00746). Description: Factor D esterolytic assay (Z-Lys-SBzl thioester substrate, DTNB, 405 nm). The test is classed as biochemical. As to conditions: substrate Z-Lys-SBzl 1.29 mM, 100 mM HEPES, 500 mM NaCl, pH 7.5, 10% DMSO, tested a minimum of three times. Put shortly: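 Run in pH 7.5 HEPES (100 mM) with 500 mM NaCl and 10% DMSO, with compound preincubated at room temperature or not before adding 1.29 mM Z-Lys-SBzl. Free thiol released by Factor D reacts with DTNB, and rate is followed at 405 nm minus 690 nm over 600 s. IC50 derives from rate-based inhibition, minimum three replicates.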
On to `Cc1ccc2c3c(N)ncnc3n(CC(=O)N3[C@@H]4C[C@@H]4C[C@H]3C(=O)Nc3cccc(Br)n3)c2c1` [Compound 23f, (1R,3S,5R)-2-(2-(4-amino-7-methyl-9H-pyrimido[4,5-b]indol-9-yl)acetyl)-N-(6-bromopyridin-2-yl)-2-azabicyclo[3.1.0]hexane-3-carboxamide], for which the negative-log IC50 (pIC50) is over 7.00. Turning to `COc1cc(Cl)cc2c3c(N)ncnc3n(CC(=O)N3[C@@H]4C[C@@H]4C[C@H]3C(=O)Nc3cccc(Br)n3)c12` [Compound 238g, (1R,3S,5R)-2-(2-(4-amino-6-chloro-8-methoxy-9H-pyrimido[4,5-b]indol-9-yl)acetyl)-N-(6-bromopyridin-2-yl)-2-azabicyclo[3.1.0]hexane-3-carboxamide], the pIC50 is over 7.00.

On to `Nc1ncnc2c1c1cc(C(F)(F)F)ccc1n2CC(=O)N1c2ccccc2C[C@H]1C(=O)Nc1cccc(Br)n1` [Compound 179d, (S)-1-(2-(4-amino-6-(trifluoromethyl)-9H-pyrimido[4,5-b]indol-9-yl)acetyl)-N-(6-bromopyridin-2-yl)indoline-2-carboxamide], for which the pIC50 is under 6.00. Take `CNc1ncnc2c1cnn2CC(=O)N1CCC[C@H]1C(=O)NCc1cccc(Cl)c1F` [Compound 76b, (S)—N-(3-chloro-2-fluorobenzyl)-1-(2-(4-(methylamino)-1H-pyrazolo[3,4-d]pyrimidin-1-yl)acetyl)pyrrolidine-2-carboxamide]: the pIC50 is under 6.00. On to `COc1ccc2c3c(N)ncnc3n(CC(=O)N3[C@H](C(=O)Nc4nc(Br)ccc4C)C[C@@]4(C)C[C@@H]34)c2c1` [Compound 253a, (1R,3S,5R)-2-(2-(4-amino-7-methoxy-9H-pyrimido[4,5-b]indol-9-yl)acetyl)-N-(6-bromo-3-methylpyridin-2-yl)-5-methyl-2-azabicyclo[3.1.0]hexane-3-carboxamide], for which the pIC50 is over 7.00. For `Nc1ncnc2c1c1cc(Br)ccc1n2CC(=O)N1[C@@H]2C[C@@H]2C[C@H]1C(=O)Nc1cccc(Br)n1` [Compound 34e, (1R,3S,5R)-2-(2-(4-amino-6-bromo-9H-pyrimido[4,5-b]indol-9-yl)acetyl)-N-(6-bromopyridin-2-yl)-2-azabicyclo[3.1.0]hexane-3-carboxamide], the pIC50 is over 7.00.

In the case of `Nc1ncnc2c1c1cc(-c3ccncc3)ccc1n2CC(=O)N1[C@@H]2C[C@@H]2C[C@H]1C(=O)Nc1cccc(Br)n1` [Compound 226c, (1R,3S,5R)-2-(2-(4-amino-6-(pyridin-4-yl)-9H-pyrimido[4,5-b]indol-9-yl)acetyl)-N-(6-bromopyridin-2-yl)-2-azabicyclo[3.1.0]hexane-3-carboxamide], the pIC50 was over 7.00. With `Cc1ccc(Cl)nc1NC(=O)[C@@H]1C[C@@H](F)CN1C(=O)Cn1c2ncnc(N)c2c2cc(C(F)(F)F)cc(C)c21` [Compound 365c, (2S,4R)-1-(2-(4-amino-8-methyl-6-(trifluoromethyl)-9H-pyrimido[4,5-b]indol-9-yl)acetyl)-N-(6-chloro-3-methylpyridin-2-yl)-4-fluoropyrrolidine-2-carboxamide] the figure was over 7.00. With `C[C@@]12C[C@@H](C(=O)Nc3cccc(Br)n3)N(C(=O)Cn3c4cnccc4c4c(N)ncnc43)[C@@H]1C2` [Compound 182a, (1R,3S,5R)-2-(2-(4-amino-9H-pyrido[4′,3′:4,5]pyrrolo[2,3-d]pyrimidin-9-yl)acetyl)-N-(6-bromopyridin-2-yl)-5-methyl-2-azabicyclo[3.1.0]hexane-3-carboxamide] the figure was over 7.00; with `Cc1cc(C(F)(F)F)cc2c3c(N)ncnc3n(CC(=O)N3[C@@H]4C[C@@H]4C[C@H]3C(=O)Nc3cncc(Br)n3)c12` [Compound 295a, (1R,3S,5R)-2-(2-(4-amino-8-methyl-6-(trifluoromethyl)-9H-pyrimido[4,5-b]indol-9-yl)acetyl)-N-(6-bromopyrazin-2-yl)-2-azabicyclo[3.1.0]hexane-3-carboxamide], over 7.00; with `Nc1ncnc2c1ncn2CC(=O)N1[C@@H]2CC[C@@H](C2)[C@H]1C(=O)NCc1cccc(Cl)c1F` [Compound 124b, (1R,3S,4S)-2-(2-(6-amino-9H-purin-9-yl)acetyl)-N-(3-chloro-2-fluorobenzyl)-2-azabicyclo[2.2.1]heptane-3-carboxamide], under 6.00. Consider `Nc1ncnc2c1c(-c1ccc[nH]1)cn2CC(=O)N1C[C@H](F)C[C@H]1C(=O)NCc1cccc(Cl)c1F` [Compound 149b, (2S,4R)-1-(2-(4-amino-5-(1H-pyrrol-2-yl)-7H-pyrrolo[2,3-d]pyrimidin-7-yl)acetyl)-N-(3-chloro-2-fluorobenzyl)-4-fluoropyrrolidine-2-carboxamide], for which the pIC50 was 6.00 to 7.00. `COc1cc2c(cc1F)c1c(N)ncnc1n2CC(=O)N1[C@H](C(=O)Nc2cccc(Br)n2)C[C@@]2(C)C[C@@H]12` [Compound 388a, (1R,3S,5R)-2-(2-(4-amino-6-fluoro-7-methoxy-9H-pyrimido[4,5-b]indol-9-yl)acetyl)-N-(6-bromopyridin-2-yl)-5-methyl-2-azabicyclo[3.1.0]hexane-3-carboxamide]: the pIC50 was over 7.00.

Turning to `Nc1ncnc2c1cc1n2C(C(=O)N2[C@@H](C(=O)Nc3cccc(Br)n3)C[C@@H]3C[C@@H]32)Oc2ccccc2-1` (single isomer, unassigned) [Compound 293a], the pIC50 was 6.00 to 7.00. Regarding `Nc1ncnc2c1c(-c1cccnc1)cn2CC(=O)N1C[C@H](F)C[C@H]1C(=O)NCc1cccc(Cl)c1F` [Compound 114f, (2S,4R)-1-(2-(4-amino-5-(pyridin-3-yl)-7H-pyrrolo[2,3-d]pyrimidin-7-yl)acetyl)-N-(3-chloro-2-fluorobenzyl)-4-fluoropyrrolidine-2-carboxamide], the pIC50 is over 7.00. For `NCc1cccc(-c2cn(CC(=O)N3C[C@H](F)C[C@H]3C(=O)NCc3cccc(Cl)c3F)c3ncnc(N)c23)c1` [Compound 115e, (2S,4R)-1-(2-(4-amino-5-(3-(aminomethyl)phenyl)-7H-pyrrolo[2,3-d]pyrimidin-7-yl)acetyl)-N-(3-chloro-2-fluorobenzyl)-4-fluoropyrrolidine-2-carboxamide], the pIC50 is 6.00 to 7.00.

On to `Cc1ncc(-c2cc(C)c3c(c2)c2c(N)ncnc2n3CC(=O)N2[C@H](C(=O)Nc3cccc(Cl)n3)C[C@@]3(C)C[C@@H]23)cn1` [Compound 315a, (1R,3S,5R)-2-(2-(4-amino-8-methyl-6-(2-methylpyrimidin-5-yl)-9H-pyrimido[4,5-b]indol-9-yl)acetyl)-N-(6-chloropyridin-2-yl)-5-methyl-2-azabicyclo[3.1.0]hexane-3-carboxamide], for which the pIC50 was over 7.00. As to `COC(=O)c1cnc2c(ccn2CC(=O)N2[C@@H]3C[C@@H]3C[C@H]2C(=O)Nc2cccc(Br)n2)c1` [Compound 127d, methyl 1-(2-((1R,3S,5R)-3-((6-bromopyridin-2-yl)carbamoyl)-2-azabicyclo[3.1.0]hexan-2-yl)-2-oxoethyl)-1H-pyrrolo[2,3-b]pyridine-5-carboxylate], the pIC50 is under 6.00. On to `Cc1ncc(-c2cc(C)c3c(c2)c2c(N)ncnc2n3CC(=O)N2[C@@H]3C[C@@H]3C[C@H]2C(=O)Nc2nc(Br)ccc2C)cn1` [Compound 310a, (1R,3S,5R)-2-(2-(4-amino-8-methyl-6-(2-methylpyrimidin-5-yl)-9H-pyrimido[4,5-b]indol-9-yl)acetyl)-N-(6-bromo-3-methylpyridin-2-yl)-2-azabicyclo[3.1.0]hexane-3-carboxamide], for which the pIC50 was over 7.00.

For `Nc1ncnc2c1c1cc(C(F)(F)F)ccc1n2CC(=O)N1[C@@H]2C[C@@H]2C[C@H]1C(=O)Nc1cccc(Br)c1` [Compound 266b, (1R,3S,5R)-2-(2-(4-amino-6-(trifluoromethyl)-9H-pyrimido[4,5-b]indol-9-yl)acetyl)-N-(3-bromophenyl)-2-azabicyclo[3.1.0]hexane-3-carboxamide], the pIC50 was over 7.00.

For `Cc1cc(F)c2c(c1)c1c(N)ncnc1n2CC(=O)N1[C@H](C(=O)Nc2cccc(Br)n2)C[C@@]2(C)C[C@@H]12` [Compound 392a, (1R,3S,5R)-2-(2-(4-amino-8-fluoro-6-methyl-9H-pyrimido[4,5-b]indol-9-yl)acetyl)-N-(6-bromopyridin-2-yl)-5-methyl-2-azabicyclo[3.1.0]hexane-3-carboxamide], the pIC50 was over 7.00. Take `Cc1cc(-c2ccccn2)cc2c3c(N)ncnc3n(CC(=O)N3[C@H](C(=O)Nc4cccc(Br)n4)C[C@@]4(C)C[C@@H]34)c12` [Compound 378c, (1R,3S,5R)-2-(2-(4-amino-8-methyl-6-(pyridin-2-yl)-9H-pyrimido[4,5-b]indol-9-yl)acetyl)-N-(6-bromopyridin-2-yl)-5-methyl-2-azabicyclo[3.1.0]hexane-3-carboxamide]: the pIC50 is over 7.00. Take `COc1cc2c(cc1C)c1c(N)ncnc1n2CC(=O)N1[C@@H]2C[C@@H]2C[C@H]1C(=O)Nc1cccc(Br)n1` [Compound 328f, (1R,3S,5R)-2-(2-(4-amino-7-methoxy-6-methyl-9H-pyrimido[4,5-b]indol-9-yl)acetyl)-N-(6-bromopyridin-2-yl)-2-azabicyclo[3.1.0]hexane-3-carboxamide]: the negative-log IC50 (pIC50) was over 7.00. Regarding `C[C@@]12C[C@@H](C(=O)Nc3cccc(Br)n3)N(C(=O)Cn3c4ncnc(N)c4c4cccc(-c5ccccc5)c43)[C@@H]1C2` [Compound 245a, (1R,3S,5R)-2-(2-(4-amino-8-phenyl-9H-pyrimido[4,5-b]indol-9-yl)acetyl)-N-(6-bromopyridin-2-yl)-5-methyl-2-azabicyclo[3.1.0]hexane-3-carboxamide], the pIC50 was over 7.00.

For the compound `Nc1ncnc2c1c(-c1ccc3cc[nH]c3c1)cn2CC(=O)N1C[C@H](F)C[C@H]1C(=O)NCc1cccc(Cl)c1F` [Compound 137b, (2S,4R)-1-(2-(4-amino-5-(1H-indol-6-yl)-7H-pyrrolo[2,3-d]pyrimidin-7-yl)acetyl)-N-(3-chloro-2-fluorobenzyl)-4-fluoropyrrolidine-2-carboxamide], the pIC50 was over 7.00.
